Reference: patent US7008636B2, “2,3,5-substituted biphenyls useful in the treatment of insulin resistance and hyperglycemia” (Wyeth, priority 1998, dated 2006)
Counter-ions that a name gives are not always drawn.

molecular target: T1, recombinant, human protein tyrosine phosphatase (PTP) 1B (hPTP1B) (Homo sapiens, UniProt P18031); assay: Inhibition of tri-phosphorylated insulin receptor dodecaphosphopeptide dephosphorylation by hPTP1B; assay type: biochemical; settings: 50 μM IR triphosphopeptide substrate, 5 min preincubation and 5 min reaction at 37° C., malachite green-ammonium molybdate phosphate detection
T1 construct: made in house
T1 sequence (P18031 1-435): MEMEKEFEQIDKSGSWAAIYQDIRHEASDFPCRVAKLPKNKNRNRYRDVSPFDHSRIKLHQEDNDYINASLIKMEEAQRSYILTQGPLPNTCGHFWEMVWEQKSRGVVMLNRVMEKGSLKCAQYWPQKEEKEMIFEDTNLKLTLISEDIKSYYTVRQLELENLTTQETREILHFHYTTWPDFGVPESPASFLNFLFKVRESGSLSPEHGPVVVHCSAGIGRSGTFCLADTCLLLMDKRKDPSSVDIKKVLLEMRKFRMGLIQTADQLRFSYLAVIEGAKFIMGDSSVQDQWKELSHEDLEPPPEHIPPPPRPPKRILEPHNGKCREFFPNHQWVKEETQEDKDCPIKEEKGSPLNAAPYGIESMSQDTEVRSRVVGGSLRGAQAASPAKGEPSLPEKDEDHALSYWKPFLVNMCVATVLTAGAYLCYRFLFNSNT

| IC50 | Compound |
| --- | --- |
| 99 nM | O=C(NCCCCCCCCc1ccccc1)c1cc(-c2cccc(C(F)(F)F)c2)c(OCCNc2c(O)c(=O)c2=O)c(-c2cccc(C(F)(F)F)c2)c1 [Example 197] |
| 102 nM | COc1cc(COc2c(-c3cccc(C(F)(F)F)c3)cc(C(=O)NCCCCCCCCc3ccccc3)cc2-c2cccc(C(F)(F)F)c2)ccc1C(=O)O [Example 199, 2-Methoxy-4-[5′-(8-phenyl-octylcarbamoyl)-3,3″-bis-trifluoromethyl-[1,1′:3′1″]terphenyl-2′yloxymethyl]-benzoic acid] |
| 50 nM | O=C(NCCCCCCCCc1ccccc1)c1cc(-c2cccc(C(F)(F)F)c2)c(OS(=O)(=O)c2ccc(C(=O)O)c(O)c2)c(-c2cccc(C(F)(F)F)c2)c1 [Example 203, 2-Hydroxy-4-[5′-(8-phenyl-octylcarbamoyl)-3,3″-bis-trifluoromethyl-[1,1′:3′1″]terphenyl-2′-yloxysulfonyl]-benzoic acid] |
| 73 nM | COc1cc(COc2c(Br)cc(C(=O)NCCCCCCCCc3ccccc3)cc2-c2cccc(C(F)(F)F)c2)ccc1C(=O)O [Example 204, 4-[3-Bromo-5-(8-phenyl-octylcarbamoyl)-3′-trifluoromethyl-biphenyl-2-yloxymethyl]-2-methoxy-benzoic acid] |
| 286 nM | O=C(NCCCCCCCCc1ccccc1)c1cc(-c2cccc(C(F)(F)F)c2)c(OCc2nnn[nH]2)c(-c2cccc(C(F)(F)F)c2)c1 [Example 206, 2′-(1H-Tetrazol-5-ylmethoxy)-3,3″-bis-trifluoromethyl-[1,1′:3′1″]terphenyl-5′-carboxylic acid (8-phenyl-octyl)-amide] |
| 83 nM | O=C(NCCCCCCCCc1ccccc1)c1cc(Br)c(OCc2ccc(C(=O)O)c(O)c2)c(-c2cccc(C(F)(F)F)c2)c1 [Example 208, 4-[3-Bromo-5-(8-phenyl-octylcarbamoyl)-3′-trifluoromethyl-biphenyl-2-yloxymethyl]-2-hydroxy-benzoic acid] |
| 530 nM | O=C(NCCCCCCCCc1ccccc1)c1ccc(OS(=O)(=O)c2ccc(C(=O)O)c(O)c2)c(Br)c1 [Example 210, 4-[2-Bromo-4-(8-phenyl-octylcarbamoyl)-phenoxysulfonyl]-2-hydroxy-benzoic acid] |
| 60 nM | O=C(NCCCCCCCCc1ccccc1)c1cc(-c2cccc(C(F)(F)F)c2)c(OCCOc2ccc(C(=O)O)c(O)c2)c(-c2cccc(C(F)(F)F)c2)c1 [Example 211, 2-Hydroxy-4-{2-[5′-(8-phenyl-octylcarbamoyl)-3,3″-bis-trifluoromethyl-[1,1′:3′,1″]terphenyl-2′-yloxy]-ethoxy}-benzoic acid] |
| 272 nM | CN(CCCCCCCCc1ccccc1)C(=O)c1cc(Br)c(OCC(=O)O)c(-c2cccc(C(F)(F)F)c2)c1 [Example 212, {3-Bromo-5-[methyl-(8-phenyl-octyl)-carbamoyl]-3′-trifluoromethyl-biphenyl-2-yloxy]-acetic acid] |
| 198 nM | CN(CCCCCCCCc1ccccc1)C(=O)c1cc(-c2ccc(F)c(Cl)c2)c(OCC(=O)O)c(-c2ccc(F)c(Cl)c2)c1 [Example 213, {3,3″-Dichloro-4,4″difluoro-5′-[methyl-(8-phenyl-octyl)-carbamoyl]-[1,1′;3′1″]terphenyl-2′yloxy}-acetic acid] |
| 8700 nM | Ammonium molybdate tetrahydrate [reference compound] |
| 124 nM | [[4,4′-Dimethoxy-5′-[4-[[(7-phenylheptyl)amino]carbonyl]phenyl][1,1′:3′,1-terphenyl]-2′-yl]oxy]acetic acid [Example 131] |
| 84 nM | [[5′-[4-[[(7-Phenylheptyl)amino]carbonyl]phenyl]-3,3′-bis(trifluoromethyl)[1,1′:3′,1′-terphenyl]-2′-yl]oxy]acetic acid [Example 132] |

Continued, compound first:

| Compound | IC50 |
| --- | --- |
| CCCCCCCOc1ccc(CNC(=O)c2cc(-c3cccc(Cl)c3)c(OCC(=O)O)c(-c3cccc(Cl)c3)c2)cc1 [Example 162, [3,3″-Dichloro-5′-(4-heptyloxy-benzylcarbamoyl)-[1,1′;3′,1″]terphenyl-2′-yloxy]acetic acid] | 136 nM |
| O=C(O)CCCCOc1c(-c2cccc(Cl)c2)cc(C(=O)NCCCCCCCCn2ccc3ccccc32)cc1-c1cccc(Cl)c1 [Example 164, 5-[3,3″-Dichloro-5′-(8-indol-1-yl-octylcarbamoyl)-[1,1′;3′,1″]terphenyl-2′-yloxy]-pentanoic acid] | 191 nM |
| O=C(O)c1ccc(OCCOc2c(-c3cccc(Cl)c3)cc(C(=O)NCCCCCCCCn3ccc4ccccc43)cc2-c2cccc(Cl)c2)cc1 [Example 165, 4-{2-[3,3″-Dichloro-5′-(8-indol-1-yl-octylcarbamoyl)-[1,1′:3′,1″]terphenyl-2′-yloxy]-ethoxy}benzoic acid] | 77 nM |
| O=C(O)COc1c(-c2cccc(Cl)c2)cc(C(=O)NCCCCCCO)cc1-c1cccc(Cl)c1 [Example 167, [3,3″-Dichloro-5′-(6-hydroxy-hexylcarbamoyl)-[1,1′:3′,1″]terphenyl-2′-yloxy]acetic acid] | 231 nM |
| O=C(O)COCCOc1c(-c2cccc(Cl)c2)cc(C(=O)NCCCCCCCCn2ccc3ccccc32)cc1-c1cccc(Cl)c1 [Example 168, {2-[3,3″-Dichloro-5′-(8-indol-1-yl-octylcarbamoyl)-[1,1′:3′,1″]terphenyl-2′-yloxy]-ethoxy}acetic acid] | 77 nM |
| CCCCCCCCCCCCCc1cc(-c2ccccc2)c(OCC(=O)O)c(-c2ccccc2)c1 [Example 171, (5′-Tridecyl-[1,1′;3′,1″]terphenyl-2′-yloxy)acetic acid] | 18 nM |
| CCCCCCCCCCOc1cc(-c2ccccc2)c(OCC(=O)O)c(-c2ccccc2)c1 [Example 172, (5′-Decyloxy-[1,1′;3′,1″]terphenyl-2′-yloxy)acetic acid] | 154 nM |
| CCCCCCCCCCCCNC(=O)c1cc(Br)c(OCC(=O)O)c(-c2cccc(C(F)(F)F)c2)c1 [Example 176, (3-Bromo-5-dodecylcarbamoyl-3′-trifluoromethyl-biphenyl-2-yloxy)-acetic acid] | 121 nM |
| O=C(O)COc1c(-c2cccc(C(F)(F)F)c2)cc(C(=O)NCCCCCCCCc2ccccc2)cc1-c1cccc(C(F)(F)F)c1 [Example 177] | 104 nM |
| CCCCCCCCCCCCNC(=O)c1cc(Br)c(OS(=O)(=O)c2ccc(C(=O)O)c(O)c2)c(-c2cccc(C(F)(F)F)c2)c1 [Example 179, 4-(3-Bromo-5-dodecylcarbamoyl-3′-trifluoromethyl-biphenyl-2-yloxysulfonyl)-2-hydroxy-benzoic acid] | 25 nM |
| O=C(O)CCCCOc1c(-c2cccc(C(F)(F)F)c2)cc(C(=O)NCCCCCCCCc2ccccc2)cc1-c1cccc(C(F)(F)F)c1 [Example 192] | 107 nM |
| O=C(NCCCCCCCCc1ccccc1)c1cc(Br)c(O)c(-c2cccc(C(F)(F)F)c2)c1 [Example 194, 5-Bromo-6-hydroxy-3′-trifluoromethyl-biphenyl-3-carboxylic acid (8-phenyl-octyl)-amide] | 640 nM |
| O=C(NCCCCCCCCc1ccccc1)c1cc(Br)c(OS(=O)(=O)c2ccc(C(=O)O)c(O)c2)c(-c2cccc(C(F)(F)F)c2)c1 [Example 195, 4-[3-Bromo-5-(8-phenyl-octylcarbamoyl)-3′-trifluoromethyl-biphenyl-2-yloxysulfonyl]-2-hydroxy-benzoic acid] | 73 nM |
| O=C(O)CCCCCCOc1c(-c2cccc(C(F)(F)F)c2)cc(C(=O)NCCCCCCCCc2ccccc2)cc1-c1cccc(C(F)(F)F)c1 [Example 196, 7-[5′-(8-Phenyl-octylcarbamoyl)-3,3″-bistrifluoromethyl-[1,1′;3′,1″]terphenyl-2′-yloxy]-heptanoic acid] | 150 nM |

tested on: not given; assay: not given; settings: not given

| Compound | melting point |
| --- | --- |
| CCCCCCCCCCCCNC(=O)c1cc(-c2ccc(F)c(Cl)c2)c(OCC(=O)O)c(-c2ccc(F)c(Cl)c2)c1 (as salt: sodium) [Example 24, (3,3″-Dichloro-5′-dodecylcarbamoyl-4,4″-difluoro[1,1′;3′,1″]terphenyl(-2′-yloxy)-acetic acid sodium salt] | 140.2 to 141 °C |
| CCOP(=O)(COc1c(-c2cccc(C(F)(F)F)c2)cc(C(=O)NCCCCCCCc2ccccc2)cc1-c1cccc(C(F)(F)F)c1)OCC (hydrate or solvate) | 84 to 85 °C |
| O=C(NCCCCCCCc1ccccc1)c1cc(-c2cccc(C(F)(F)F)c2)c(OCP(=O)(O)O)c(-c2cccc(C(F)(F)F)c2)c1 (hydrate or solvate) [Example 128, [5′-(7-Phenyl-heptylcarbamoyl)-3,3″-bis-trifluoromethyl-[1,1′:3′,1″]terphenyl-2′-yloxymethyl]-phosphonic acid] | 160 to 165 °C |
| COc1ccc(-c2cc(-c3ccc(C(=O)NCCCCCCCc4ccccc4)cc3)cc(-c3ccc(OC)cc3)c2OCc2ccc(C(=O)O)cc2)cc1 (hydrate or solvate) [Example 133] | 140 to 142 °C |
| O=C(O)c1ccc(COc2c(-c3cccc(C(F)(F)F)c3)cc(C(=O)NCCCCCCCc3ccccc3)cc2-c2cccc(C(F)(F)F)c2)cc1 (hydrate or solvate) [Example 134, 4-[5′-(7-Phenyl-heptylcarbamoyl)-3,3″-bis-trifluoromethyl-[1,1′:3′,1″]terphenyl-2′-yloxymethyl]-benzoic acid] | 89 to 91 °C |
| O=C(O)COc1c(-c2cccc(C(F)(F)F)c2)cc(C(=O)NCCCCCCCCc2ccccc2)cc1-c1cccc(C(F)(F)F)c1 [Example 7] | 143 to 145.4 °C |
